Values joined by “and” are separate entries in the source; they are usually repeats but may differ in a detail not shown here. Equal entries are not always repeated. Inconclusive results are not listed.
Test system: BDF1 mice, s.c. Lewis lung carcinoma, T/C %
Test: NCI In Vivo Anticancer Drug Screen. Data for tumor model Lewis Lung Carcinoma (subcutaneous) in B6D2F1 (BDF1) mice
Summary of the method: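 The value reflects a ratio in which the treated cohort's survival time or tumour size is compared against mice receiving only vehicle.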

CC(=O)c1c(O)c(C)c(O)c2c1OC1=CC(=O)C(C(C)=O)C(=O)C12C (stereo not drawn)
T/C (endpoint: median survival time, dose: 6.25 mg/kg/injection, schedule: Q01DX009 (ip), vehicle: gum acacia, higher = longer survival): 111 % of control
T/C (endpoint: median survival time, dose: 12.5 mg/kg/injection, schedule: Q01DX009 (ip), vehicle: gum acacia, higher = longer survival): 95 % of control and 110 % of control
T/C (endpoint: median survival time, dose: 25.0 mg/kg/injection, schedule: Q01DX009 (ip), vehicle: gum acacia, higher = longer survival): 101 % of control and 102 % of control and 123 % of control
T/C (endpoint: median survival time, dose: 50.0 mg/kg/injection, schedule: Q01DX009 (ip), vehicle: gum acacia, higher = longer survival): 101 % of control and 113 % of control and 115 % of control
T/C (endpoint: median survival time, dose: 100.0 mg/kg/injection, schedule: Q01DX009 (ip), vehicle: gum acacia, higher = longer survival): 98 % of control and 116 % of control and 123 % of control
T/C (endpoint: median survival time, dose: 200.0 mg/kg/injection, schedule: Q01DX009 (ip), vehicle: gum acacia, higher = longer survival): 106 % of control

ClCCCN1CCCCC1CCl (stereo not drawn)
T/C (endpoint: median survival time, dose: 3.12 mg/kg/injection, schedule: Q04DX003 (ip), vehicle: saline, higher = longer survival): 96 % of control
T/C (endpoint: median survival time, dose: 6.25 mg/kg/injection, schedule: Q04DX003 (ip), vehicle: saline, higher = longer survival): 113 % of control
T/C (endpoint: median survival time, dose: 12.5 mg/kg/injection, schedule: Q04DX003 (ip), vehicle: saline, higher = longer survival): 104 % of control

C[C@]1(O)CC[C@H]2[C@@H]3CCC4=CC(=O)CC[C@]4(C)[C@@]3(F)[C@@H](O)C[C@@]21C
T/C (endpoint: median survival time, dose: 12.5 mg/kg/injection, schedule: Q02DX009 (ip), vehicle: Klucel (hydroxypropylcellulose) (HPC), higher = longer survival): 103 % of control
T/C (endpoint: median survival time, dose: 25.0 mg/kg/injection, schedule: Q02DX009 (ip), vehicle: Klucel (hydroxypropylcellulose) (HPC), higher = longer survival): 93 % of control
T/C (endpoint: median survival time, dose: 50.0 mg/kg/injection, schedule: Q02DX009 (ip), vehicle: Klucel (hydroxypropylcellulose) (HPC), higher = longer survival): 87 % of control
T/C (endpoint: median survival time, dose: 100.0 mg/kg/injection, schedule: Q02DX009 (ip), vehicle: Klucel (hydroxypropylcellulose) (HPC), higher = longer survival): 109 % of control
T/C (endpoint: median survival time, dose: 200.0 mg/kg/injection, schedule: Q02DX009 (ip), vehicle: Klucel (hydroxypropylcellulose) (HPC), higher = longer survival): 103 % of control
T/C (endpoint: median survival time, dose: 400.0 mg/kg/injection, schedule: Q02DX009 (ip), vehicle: Klucel (hydroxypropylcellulose) (HPC), higher = longer survival): 96 % of control

ClCCn1cnc2c(SCc3ccccc3Cl)ncnc21
T/C (endpoint: mean tumor weight, dose: 60.0 mg/kg/injection, schedule: Q01DX011 (ip), vehicle: other, higher = larger tumour): 75 % of control
T/C (endpoint: mean tumor weight, dose: 120.0 mg/kg/injection, schedule: Q01DX011 (ip), vehicle: other, higher = larger tumour): 58 % of control
T/C (endpoint: mean tumor weight, dose: 240.0 mg/kg/injection, schedule: Q01DX011 (ip), vehicle: other, higher = larger tumour): 64 % of control

O=NN(CCCl)C(=O)NC1CS(=O)(=O)CS(=O)(=O)C1
T/C (endpoint: median survival time, dose: 5.3 mg/kg/injection, schedule: Q04DX004 (ip), vehicle: saline with Tween-80, higher = longer survival): 82 % of control
T/C (endpoint: median survival time, dose: 8.0 mg/kg/injection, schedule: Q04DX004 (ip), vehicle: saline with Tween-80, higher = longer survival): 151 % of control
T/C (endpoint: median survival time, dose: 12.0 mg/kg/injection, schedule: Q04DX004 (ip), vehicle: saline with Tween-80, higher = longer survival): 99 % of control
T/C (endpoint: median survival time, dose: 18.0 mg/kg/injection, schedule: Q04DX004 (ip), vehicle: saline with Tween-80, higher = longer survival): 118 % of control

OCC1OC(Oc2ccc(O)cc2)C(O)C(O)C1O (stereo not drawn)
T/C (endpoint: median survival time, dose: 50.0 mg/kg/injection, schedule: Q01DX009 (ip), vehicle: saline, higher = longer survival): 95 % of control
T/C (endpoint: median survival time, dose: 100.0 mg/kg/injection, schedule: Q01DX009 (ip), vehicle: saline, higher = longer survival): 106 % of control
T/C (endpoint: median survival time, dose: 200.0 mg/kg/injection, schedule: Q01DX009 (ip), vehicle: saline, higher = longer survival): 92 % of control
T/C (endpoint: median survival time, dose: 400.0 mg/kg/injection, schedule: Q01DX009 (ip), vehicle: saline, higher = longer survival): 106 % of control

CC1CN(C(=O)CCl)c2ccccc2N1C(=O)CCl (stereo not drawn)
T/C (endpoint: mean tumor weight, dose: 1.0 mg/kg/injection, schedule: Q01DX011 (ip), vehicle: carboxymethylcellulose (CMC), higher = larger tumour): 121 % of control
T/C (endpoint: mean tumor weight, dose: 2.0 mg/kg/injection, schedule: Q01DX011 (ip), vehicle: carboxymethylcellulose (CMC), higher = larger tumour): 94 % of control
T/C (endpoint: mean tumor weight, dose: 4.0 mg/kg/injection, schedule: Q01DX011 (ip), vehicle: carboxymethylcellulose (CMC), higher = larger tumour): 75 % of control
T/C (endpoint: mean tumor weight, dose: 8.0 mg/kg/injection, schedule: Q01DX011 (ip), vehicle: carboxymethylcellulose (CMC), higher = larger tumour): 124 % of control

CC(=O)C(O)N1C(=O)C=CC1=O (stereo not drawn)
T/C (endpoint: median survival time, dose: 0.31 mg/kg/injection, schedule: Q01DX009 (ip), vehicle: saline, higher = longer survival): 100 % of control
T/C (endpoint: median survival time, dose: 0.62 mg/kg/injection, schedule: Q01DX009 (ip), vehicle: saline, higher = longer survival): 98 % of control and 105 % of control and 119 % of control
T/C (endpoint: median survival time, dose: 1.25 mg/kg/injection, schedule: Q01DX009 (ip), vehicle: saline, higher = longer survival): 107 % of control (2×) and 120 % of control
T/C (endpoint: median survival time, dose: 1.25 mg/kg/injection, schedule: Q02DX009 (ip), vehicle: saline, higher = longer survival): 114 % of control
T/C (endpoint: median survival time, dose: 2.5 mg/kg/injection, schedule: Q01DX009 (ip), vehicle: saline, higher = longer survival): 90 % of control and 107 % of control
T/C (endpoint: median survival time, dose: 2.5 mg/kg/injection, schedule: Q02DX009 (ip), vehicle: saline, higher = longer survival): 104 % of control
T/C (endpoint: median survival time, dose: 5.0 mg/kg/injection, schedule: Q01DX009 (ip), vehicle: saline, higher = longer survival): 97 % of control and 100 % of control and 120 % of control
T/C (endpoint: median survival time, dose: 5.0 mg/kg/injection, schedule: Q02DX009 (ip), vehicle: saline, higher = longer survival): 105 % of control

From PubChem BioAssay AID270 (DTP/NCI, 2004)
